These results are taken from US6855730B2, “3-methylidenyl-2-indolinone modulators of protein kinase” (Sugen, Inc., priority 1998, dated 2005).

Bounds are passed on as bounds.

The target in one experiment is T1, PDGFR-β (Homo sapiens, UniProt P09619).
T1 construct: host or cells: NIH 3T3
Nature of the experiment: Biochemical PDGFR assay (ELISA, PDGFR-β expressing NIH 3T3 cell lysate). Particulars: read-out: bio PDGF IC50. An excerpt:
This assay measures the in vitro kinase activity of PDGFR using ELISA.
Unless otherwise noted, the preparation of working solution-of the following reagents is the same as that for the Biochemical EGFR assay, above. • 1. […] 28D4C10 monoclonal anti-PDGFR antibody (Biochemistry Lab, SUGEN, Inc.). • 3. PBS (Dulbecco's Phosphate-Buffered Saline, Gibco Catalog No. 450-1300EB) • 4. TBST Buffer. • 5. Blocking Buffer. • 6. PDGFR-β expressing NIH 3T3 cell lysate (Screening Lab, SUGEN, Inc.). • 7. TBS Buffer. • 8. TBS+10% DMSO. • 9. […] MnCl2. • 11. Kinase buffer phosphorylation mix.
• 12. NUNC 96-well V bottom polypropylene plates (Applied Scientific Cat. No. AS-72092). • 13. Ethylenediaminetetraacetic acid (EDTA). • 14. Rabbit polyclonal anti-phosphotyrosine serum (Biochemistry Lab, SUGEN, Inc.). • 15. Goat anti-rabbit IgG peroxidase conjugate (Biosource Cat. No. ALI0404). • 16. 2,2′-azino-bis(3-ethylbenzthiazoline-6-sulfonic acid) (ABTS, Sigma Cat. No. A-1888). • 17. Hydrogen peroxide 30% solution (Fisher Cat. No. H325). • 18. ABTS/H2O2. • 19. 0.2 M HCl.
Procedure • 1. Coat Corning 96 well ELISA plates with 0.5 μg 28D4C10 in 100 μl PBS per well, store overnight at 4° C. • 2. Remove unbound 28D4C10 from wells by inverting plate to remove liquid. Wash 1× with dH2O. Pat the plate on a paper towel to remove excess liquid. • 3. Add 150 μl of Blocking Buffer to each well. Incubate for 30 min. at room temperature with shaking. • 4. Wash plate 3× with deionized water, then once with TBST. Pat plate on a paper towel to remove excess liquid and bubbles. • 5. Dilute lysate in HNTG (10 μg lysate/100 μl HNTG) • 6. Add 100 μl of diluted lysate to each well. Shake at room temperature for 60 min. • 7. Wash plates as described in 4, above. • 8. Add 80 μl working kinase buffer mix to ELISA plate containing captured PDGFR. • 9. Dilute test compound 1:10 in TBS in 96-well polypropylene plates (i.e., 10 μl compound+90 μl TBS). • 10. Add 10 μl diluted test compound to ELISA plate. […] Incubate for 30 minutes while shaking at room temperature. • 12. Add 10 μl ATP directly to all wells except negative control well (final well volume should be approximately 100 μl with 20 μM ATP in each well.) Incubate 30 minutes while shaking. • 13. After 30 minutes, stop reaction by adding 10 μl of 200 mM EDTA (pH 8.0) to each well. • 14. Wash 4× with deionized water, twice with TBST. • 15. Add 100 μl anti-phosphotyrosine (1:3000 dilution in TBST) per well. Incubate 30-45 min. at room temperature, with shaking. • 16. Wash as described in 4, above. • 17. Add 100 μl Biosource Goat anti-rabbit IgG peroxidase conjugate (1:2000 dilution in TBST) to each well. Incubate 30 min. at room temperature, with shaking. • 18. Wash as described in 4, above. • 19. Add 100 μl of ABTS/H2O2 solution to each well. • 20. Incubate 10 to 30 minutes with shaking. Remove any bubbles. • 21. If necessary stop reaction with the addition of 100 μl 0.2 M HCl per well. • 22. Read assay on Dynatech MR7000 ELISA reader: test filter: 410 nM, reference filter: 630 nM.
In general terms: In an ELISA, binding on a coated surface is turned into a signal by an enzyme label.

Another experiment addresses EGFR (Homo sapiens, UniProt P00533). The experiment is described as follows: Biochemical EGFR assay (ELISA, A431 cell lysate). The arrangement: A431 cell lysate (Screening Lab, SUGEN, Inc.); host or cells: A431. The settings on record: read-out: bio EGFr IC50. As for the experimental part:
This assay measures the in vitro kinase activity of EGFR using ELISA.
Materials and Reagents • 1. […] SUMO1 monoclonal anti-EGFR antibody (Biochemistry Lab, SUGEN, Inc.). • 3. PBS (Dulbecco's Phosphate-Buffered Saline, Gibco Catalog No. 450-1300EB). • 4. TBST Buffer
• 6. A431 cell lysate (Screening Lab, SUGEN, Inc.) • 7. TBS Buffer:
Prepare a 1.0 mM solution in dH2O. This reagent should be made up immediately prior to use and kept on ice. • 10. MnCl2.
Prepare a 1.0 M stock solution in dH2O. • 11. ATP/MnCl2 phosphorylation mix
This reagent should be prepared immediately before use and kept on ice. • 12. NUNC 96-well V bottom polypropylene plates (Applied Scientific Cat. No. AS-72092). • 13. Ethylenediaminetetraacetic acid (EDTA)
Prepare 200 mM working solution in dH2O. Adjust to pH 8.0 with 10 N NaOH. • 14. Rabbit polyclonal anti-phosphotyrosine serum (Biochemistry Lab, SUGEN, Inc.) • 15. Goat anti-rabbit IgG peroxidase conjugate (Biosource Cat. No. ALI0404) • 16. ABTS (2,2′-azino-bis(3-ethylbenzthiazoline-6-sulfonic acid), Sigma Cat. No. A-1888).
Mix first two ingredients in about 900 ml dH2O, adjust pH to 4.0 with phosphoric acid. Add ABTS, cover, let sit about 0.5 hr., filter. The solution should be kept in the dark at 4° C. until ready to use. • 17. Hydrogen peroxide 30% solution (Fisher Cat. No. H325) • 18. ABTS/H2O2 • Mix 15 ml ABTS solution and 2.0 μl H2O2. Prepare 5 minutes before use. • 19. 0.2 M HCl
Procedure • 1. Coat Corning 96 well ELISA plates with 0.5 μg SUMO1 in 100 μl PBS per well, store overnight at 4° C. • 2. Remove unbound SUMO1 from wells by inverting plate to remove liquid., Wash 1× with dH2O. Pat the plate on a paper towel to remove excess liquid. • 3. Add 150 μl of Blocking Buffer to each well. Incubate for 30 min. at room temperature with shaking. • 4. Wash plate 3× with deionized water, then once with TBST. Pat plate on a paper towel to remove excess liquid and bubbles. • 5. Dilute lysate in PBS (7 μg lysate/100 μl PBS). • 6. Add 100 μl of diluted lysate to each well. Shake at room temperature for 60 min. • 7. Wash plates as described in 4, above. • 8. Add 120 μl TBS to ELISA plate containing captured EGFR. • 9. Dilute test compound 1:10 in TBS in 96-well polypropylene plates (i.e. 10 μl compound+90 μl TBS). • 10. Add 13.5 μl diluted test compound to ELISA plate. […] Incubate for 30 minutes while shaking at room temperature. • 12. […] After 5 minutes, stop reaction by adding 16.5 μl of 200 mM EDTA (pH 8.0) to each well, shaking continuously. After the EDTA has been added, shake for 1 min. • 14. Wash 4× with deionized water, twice with TBST. • 15. Add 100 μl anti-phosphotyrosine (1:3000 dilution in TBST) per well. Incubate 30-45 min. at room temperature, with shaking. • 16. Wash as described in 4, above. • 17. Add 100 μl Biosource Goat anti-rabbit IgG peroxidase conjugate (1:2000 dilution in TBST) to each well. Incubate 30 min. at room temperature, with shaking. • 18. Wash as described in 4, above. • 19. Add 100 μl of ABTS/H2O2 solution to each well. • 20. Incubate 5 to 10 minutes with shaking. Remove any bubbles. • 21. If necessary stop reaction with the addition of 100 μl 1 0.2 M HCl per well. • 22. Read assay on Dynatech MR7000 ELISA reader. Test Filter: 410 nM Reference Filter: 630 Nm.

T1 sequence (P09619 33-1106): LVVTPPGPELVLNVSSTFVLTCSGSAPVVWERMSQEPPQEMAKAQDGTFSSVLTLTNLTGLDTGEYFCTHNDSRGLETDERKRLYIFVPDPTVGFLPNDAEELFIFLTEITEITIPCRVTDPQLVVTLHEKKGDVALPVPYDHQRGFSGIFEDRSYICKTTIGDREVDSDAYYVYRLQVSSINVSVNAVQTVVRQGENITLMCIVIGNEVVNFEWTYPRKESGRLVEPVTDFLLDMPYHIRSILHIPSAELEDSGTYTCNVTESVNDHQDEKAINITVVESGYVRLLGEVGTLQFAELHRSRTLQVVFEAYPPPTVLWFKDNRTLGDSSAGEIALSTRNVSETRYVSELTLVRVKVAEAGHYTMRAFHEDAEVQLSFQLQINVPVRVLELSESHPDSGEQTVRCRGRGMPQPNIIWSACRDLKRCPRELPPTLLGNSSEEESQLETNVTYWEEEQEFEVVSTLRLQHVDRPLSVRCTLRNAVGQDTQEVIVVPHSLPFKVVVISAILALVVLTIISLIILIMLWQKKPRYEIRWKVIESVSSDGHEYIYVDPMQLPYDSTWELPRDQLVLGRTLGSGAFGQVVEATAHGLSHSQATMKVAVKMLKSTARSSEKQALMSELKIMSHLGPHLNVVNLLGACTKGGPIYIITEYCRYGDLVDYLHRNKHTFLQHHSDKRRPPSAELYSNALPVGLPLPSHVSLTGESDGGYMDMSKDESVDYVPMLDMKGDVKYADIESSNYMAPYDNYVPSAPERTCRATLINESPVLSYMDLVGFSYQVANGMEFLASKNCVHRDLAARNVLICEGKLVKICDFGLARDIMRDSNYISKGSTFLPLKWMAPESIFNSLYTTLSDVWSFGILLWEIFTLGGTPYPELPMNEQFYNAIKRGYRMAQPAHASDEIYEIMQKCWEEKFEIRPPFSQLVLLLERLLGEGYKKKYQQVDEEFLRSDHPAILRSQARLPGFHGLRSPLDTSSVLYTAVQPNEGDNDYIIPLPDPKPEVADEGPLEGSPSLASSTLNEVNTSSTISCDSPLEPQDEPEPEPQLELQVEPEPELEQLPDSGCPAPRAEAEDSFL
Sequence of EGFR (P00533 25-1210): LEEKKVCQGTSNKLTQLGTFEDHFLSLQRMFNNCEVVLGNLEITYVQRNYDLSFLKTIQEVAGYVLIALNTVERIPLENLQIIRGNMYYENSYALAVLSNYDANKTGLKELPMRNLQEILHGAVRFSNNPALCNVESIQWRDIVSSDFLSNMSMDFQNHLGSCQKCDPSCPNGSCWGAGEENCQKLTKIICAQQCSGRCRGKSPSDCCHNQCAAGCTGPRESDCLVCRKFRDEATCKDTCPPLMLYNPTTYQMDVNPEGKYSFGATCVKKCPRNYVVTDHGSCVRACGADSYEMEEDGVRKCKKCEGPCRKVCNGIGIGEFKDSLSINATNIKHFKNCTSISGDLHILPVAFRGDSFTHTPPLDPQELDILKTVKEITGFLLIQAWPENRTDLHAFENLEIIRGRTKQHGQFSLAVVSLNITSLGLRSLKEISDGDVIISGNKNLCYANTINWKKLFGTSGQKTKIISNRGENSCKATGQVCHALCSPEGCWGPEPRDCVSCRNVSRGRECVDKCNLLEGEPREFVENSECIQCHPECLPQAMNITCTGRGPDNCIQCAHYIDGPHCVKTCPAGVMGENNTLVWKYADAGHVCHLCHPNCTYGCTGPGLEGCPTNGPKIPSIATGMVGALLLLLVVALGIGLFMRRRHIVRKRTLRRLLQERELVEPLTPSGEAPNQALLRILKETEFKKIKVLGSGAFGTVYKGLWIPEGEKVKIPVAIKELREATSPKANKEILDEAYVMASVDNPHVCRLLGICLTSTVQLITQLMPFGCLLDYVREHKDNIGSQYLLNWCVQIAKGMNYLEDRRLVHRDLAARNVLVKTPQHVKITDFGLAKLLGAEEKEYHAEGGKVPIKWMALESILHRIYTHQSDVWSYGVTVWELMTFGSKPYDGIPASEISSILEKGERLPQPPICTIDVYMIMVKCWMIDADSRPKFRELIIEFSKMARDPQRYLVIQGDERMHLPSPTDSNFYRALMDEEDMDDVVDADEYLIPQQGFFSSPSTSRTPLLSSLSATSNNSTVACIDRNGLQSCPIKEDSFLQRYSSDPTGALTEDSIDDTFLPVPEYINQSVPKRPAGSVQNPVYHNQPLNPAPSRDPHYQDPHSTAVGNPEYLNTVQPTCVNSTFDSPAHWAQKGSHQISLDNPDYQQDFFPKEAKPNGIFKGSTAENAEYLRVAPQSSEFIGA

For orientation: IC50 means the point on the concentration scale where inhibition reaches its midpoint. Turning to `CCOC(=O)c1c(C)[nH]c(/C=C2\C(=O)Nc3ccc(C(=O)O)cc32)c1CCCN1CCN(C)CC1` [Compound 129, 3-{4-Ethoxycarbonyl-5-methyl-3-(3-(4-methyl-piperazin-1-yl)-propyl]-1H-pyrrol-2-ylmethylene)-2-oxo-2,3-dihydro-1H-indole-5-carboxylic acid], on PDGFR-β, the 50% inhibitory concentration (IC50) was found to be 31.7 µM.
Consider `CCOC(=O)c1c(C)[nH]c(/C=C2\C(=O)Nc3ccc(C(=O)O)cc32)c1CCCN1CCOCC1` [Example 125, 3-[4-Ethoxycarbonyl-5-methyl-3-(3-morpholin-4-ylpropyl)-1H-pyrrol-2-ylmethylene]-2-oxo-2,3-dihydro-1H-indole-5-carboxylic acid], for which, on PDGFR-β, the IC50 is 5.73 µM.
In the case of `CCOC(=O)c1c(C)[nH]c(/C=C2\C(=O)Nc3ccc(OC)cc32)c1CCCN1CCCC1` [Example 127, 5-(5-Methoxy-2-oxo-1,2-dihydroindol-3-ylidenemethyl)-2-methyl-4-(3-pyrrolidin-1-ylpropyl)-1H-pyrrole-3-carboxylic acid ethyl ester], at PDGFR-β, the concentration for half-maximal inhibition (IC50) came out at 0.96 µM.
On the same count and under the same terms, as for `CCOC(=O)c1c(C)[nH]c(/C=C2\C(=O)Nc3ccc(C(=O)O)cc32)c1CCCN(C)C` [Example 134, 3-[3-(3-Dimethylaminopropyl)-4-ethoxycarbonyl-5-methyl-1H-pyrrol-2-ylmethylene]-2-oxo-2,3-dihydro-1H-indole-5-carboxylic acid], the figure is 4.88 µM.
Consider `CCOC(=O)c1c(C)[nH]c(/C=C2\C(=O)Nc3cccc(CCO)c32)c1CCCN(C)C` [Example 135, 4-(3-Dimethylaminopropyl)-5-[4-(2-hydroxyethyl)-2-oxo-1,2-dihydroindol-3-ylidenemethyl]-2-methyl-1H-pyrrole-3-carboxylic acid ethyl ester], for which the IC50 on EGFR is 0.19 µM; at PDGFR-β, 0.5 µM.
For `O=C(O)CCc1c(C=C2C(=O)Nc3cc(N4CCOCC4)ccc32)[nH]c2c1CCCC2` [Example 209, 3-[2-(6-Morpholin-4-yl-2-oxo-1,2-dihydroindol-3-ylidenemethyl)-4,5,6,7-tetrahydro-1H-indol-3-yl]-propionic acid], in that order: above 100 µM and 84.6 µM.
As to `CCOC(=O)c1c(C)[nH]c(/C=C2\C(=O)Nc3ccc(C(=O)O)cc32)c1CCCN1CCCC1` [Example 128, 3-[4-Ethoxycarbonyl-5-methyl-3-(3-pyrrolidin-1-ylpropyl)-1H-pyrrol-2-ylmethylene]-2oxo-2,3-dihydro-1H-indole-5-carboxylic acid], the IC50 on PDGFR-β is 17.1 µM.
